Reference: patent US20040171692A1, “Modulation of bone formation” (priority 2003, published 2004)
Entries after “also recorded” stand apart in the source; their conditions may differ.

Experiments:
[1] = system: bone forming cells (whole bone marrow cells, NASP cells, neonatal rat calvariae); assay: CFU-f and NASP cell assays in combination with neonatal rat calvarial organ cultures (bone anabolic activity); format: cell-based; settings: for bone anabolic activity: useful = equivalent activity to that of PGE2, FIGS. 4-7
Excerpt: The main reason for the lack of understanding of the cellular basis for the actions of bone anabolic drugs is that there exists, at present, no single in vitro assay which responds to these drugs in an appropriate manner. However, we have now developed a number of assays which, when used in combination with neonatal rat calvarial organ cultures, are able to predict bone anabolic agents.
Whole bone marrow cells (BMC's) were obtained from the tibias and femurs of 125 g male Wistar rats. The bones were removed under aseptic conditions and all soft adherent tissue removed. An end of each bone was removed, a hole made in the opposing end with an 18 gauge syringe needle, and the cells isolated centrifugally [Dobson K. R., et al., Calcif. tissue Int., 65:411-413 (1999)]. The cells were dispersed in 10 ml DMEM (containing 12% FCS, 1×10^−8 M dexamethasone and […] ascorbic acid) by repeated pipetting, and a single-cell suspension achieved by forcefully expelling the cells through a 20 gauge syringe needle. The cells were then used in the protocols described below.
To analyse the numbers of fibroblastic-colony forming units (CFU-f) in either whole BMC or high density non-adherent stromal precursor (NASP) cell cultures, 10^6 nucleated BMC, or the non-adherent cells from the high density NASP cell cultures, were plated out on 55 cm^2 petri dishes in DMEM containing; 12% FCS, 1×10^−8 M dexamethasone and 50 μg/ml ascorbic acid. In the case of the CFU-f analysis of whole BMC, the test agents were added once at the beginning of the culture period. In the case of NASP cell cultures, the test agents were added at the beginning of the NASP cell cultures themselves and the CFU-f assay only used to assess the number of CFU-f generated during the NASP cell culture. The medium was changed after 5 days and, thereafter, twice weekly. The cultures were maintained for 18 days, after which the cells were washed with PBS and fixed, by the addition of cold ethanol.
After fixation, the cultures were stained for alkaline phosphatase (APase) positive, calcium positive, collagen positive and total colonies as described by Scutt & Bertram (J. Bone and Mineral Res. 10:474-489, 1995). The cultures were then photographed using a digital camera and the APase positive, calcium positive, collagen positive and total colonies quantitated using Bioimage “Intelligent Quantifier” image analysis software [Dobson K., et al., A cost effective method for the automatic quantitative analysis of fibroblastic-colony forming units with osteoblastic potential. Calcif. Tissue Int. 65:166-172 (1999)].
BMC were cultured at a density of 1.5×10^6 cells per 2 cm^2 well in 0.75 ml DMEM containing 12% FCS, 10^−8 M dexamethasone and 50 μg/ml ascorbic acid. Solutions of the agents to be tested were added to the wells and then cultured for 4 days. The numbers of NASP cells present in the supernatant were then quantitated as described above for CFU-f cultures. To do this, the cultures were gently agitated and the supernatants, containing the non-adherent cells, were transferred to 55 cm^2 petri dishes. 10 ml of DMEM containing 12% FCS, 1×10^−8 M dexamethasone, 50 μg/ml ascorbic acid was added and the cultures maintained further as described above for CFU-f cultures.
One day old rat pups were killed and the calvariae (skull cases) dissected out. The calvariae were then cut along the sagittal suture to give two hemicalvariae per foetus. Each bone was cultured in 2 ml DMEM containing 1 mg/ml BSA, 50 μg/ml ascorbic acid, 60 μg/ml penicillin, and 50 μg/ml streptomycin and 1×10^−8 M dexamethasone in 35 mm tissue culture wells. After 24 h, the medium was replaced with fresh medium, any test agent added, and the tissue cultured for a further 48 h.
In this assay, each bone was pulsed with 10 μCi of [^3H]proline for 24 h at the end of the culture period. The bones were washed successively in trichloroacetic acid (TCA), acetone, and ether, and then dried. […]

whole bone marrow cells = assay: Fibroblastic colony forming unit (CFU-f) cultures, colony numbers; format: cell-based, rat
Method: Whole bone marrow cells (BMC's) were obtained from the tibias and femurs of 125 g male Wistar rats. The bones were removed under aseptic conditions and all soft adherent tissue removed. An end of each bone was removed, a hole made in the opposing end with an 18 gauge syringe needle, and the cells isolated centrifugally [Dobson K. R., et al., Calcif. tissue Int., 65:411-413 (1999)]. The cells were dispersed in 10 ml DMEM (containing 12% FCS, 1×10^−8 M dexamethasone and […] ascorbic acid) by repeated pipetting, and a single-cell suspension achieved by forcefully expelling the cells through a 20 gauge syringe needle. The cells were then used in the protocols described below. To analyse the numbers of fibroblastic-colony forming units (CFU-f) in either whole BMC or high density non-adherent stromal precursor (NASP) cell cultures, 10^6 nucleated BMC, or the non-adherent cells from the high density NASP cell cultures, were plated out on 55 cm^2 petri dishes in DMEM containing; 12% FCS, 1×10^−8 M dexamethasone and 50 μg/ml ascorbic acid. In the case of the CFU-f analysis of whole BMC, the test agents were added once at the beginning of the culture period. In the case of NASP cell cultures, the test agents were added at the beginning of the NASP cell cultures themselves and the CFU-f assay only used to assess the number of CFU-f generated during the NASP cell culture. The medium was changed after 5 days and, thereafter, twice weekly. The cultures were maintained for 18 days, after which the cells were washed with PBS and fixed, by the addition of cold ethanol. […] The cultures were then photographed using a digital camera and the APase positive, calcium positive, collagen positive and total colonies quantitated using Bioimage “Intelligent Quantifier” image analysis software [Dobson K., et al., A cost effective method for the automatic quantitative analysis of fibroblastic-colony forming units with osteoblastic potential. […]

MB-1.8 cells = MB-1.8 cells exposed to TZD; cited from earlier work

| SMILES | bone anabolic activity [1] | colony numbers (whole bone marrow cells) | further results |
| --- | --- | --- | --- |
| CCCCC/C=C\C/C=C\CCCCCCCC(=O)O [Linoleic acid, linoleic acid] | showed bone anabolic activity |  |  |
| CCCCCCCCCCCCCCCC(=O)OC [Methyl palmitate, methyl palmitate] |  | stimulation |  |
| CCCCC[C@H](O)/C=C/[C@H]1C=CC(=O)[C@@H]1CCCCCCC(=O)O [PGA1] |  | significant dose dependent increase | response in all three assays ([1]; alkaline phosphatase activity, calcium uptake and collagen synthesis, FIG. 1): positive response; bone anabolic activity relative to PGE2 ([1]; compared with PGE2, FIGS. 1-3): comparable with that produced by PGE2; also recorded: at least as good as that of PGE2 |
| CCCCC[C@H](O)/C=C/[C@H]1C=CC(=O)[C@@H]1C/C=C\CCCC(=O)O [PGA2] | useful activity |  |  |
| CN(CCOc1ccc(CC2SC(=O)NC2=O)cc1)c1ccccn1 (centres unmarked) [TZD, 5-(4-{[N-methyl-N(2-pyridyl)-amino]ethoxy}benzyl)thiazolidine-2,4-dione] |  |  | alkaline phosphatase activity and expression of osteoblast-associated genes (MB-1.8 cells): decrease; expression of adipocyte fatty acid protein (MB-1.8 cells): enhancing |
| CC#CCC(C)[C@H](O)/C=C/[C@@H]1[C@H]2C/C(=C/CCCC(=O)O)C[C@H]2C[C@H]1O (some centres unmarked) [iloprost] |  | stimulation comparable with that of PGA1 |  |
| CCCCCCCC/C=C\CCCCCCCC(=O)O [oleic acid] | useful activity |  |  |
| c1cc2c(cc1[C@H]1OC[C@H]3[C@@H]1CO[C@@H]3c1ccc3c(c1)OCO3)OCO2 [sesamin] | useful activity |  |  |
